Results taken from US20100074920A1 (priority 2006, published 2010).

System: serum antibodies of test subjects Serum 1B-8B
Settings: sera S1B-S8B; streptavidin immobilized peptide

Biotin-aminocaproyl-SRPRVRNIP [Peptide 2B]
binding of serum antibodies (immune response), absorbance at 450 nm: especially effective in binding with certain antibodies
